We go through 52 compounds from article PMC12040169 (PLOS Biology, 2025).

What is called viability is a read-out of living cells in per cent, often relative to untreated cells.

The series in a line: in vitro. Conditions: human, hela cells, % viability.
In the case of `Cc1cccc2c(C(=O)NCc3ccc(S(N)(=O)=O)cc3)cc(-c3ccccc3Cl)nc12` [CBK267743], the viability at 28.5 h, 10 µM amounted to 93%.

`CC1CCc2c(sc(NC(=O)c3cc(-c4ccccn4)nc4c(Cl)cccc34)c2C(N)=O)C1` (stereo not shown) [CBK267744]: the viability at 28.5 h, 10 µM amounted to 94.1%.

Take `CC(=O)Nc1cccc(NC(=O)c2cc(-c3ccccn3)nc3ccc(Cl)cc23)c1` [CBK267747]: the viability at 28.5 h, 10 µM was found to be 95.1%.

With `O=C(c1cc(-c2ccncc2)nc2ccc(Cl)cc12)N1CCN(c2ccc([N+](=O)[O-])cc2)CC1` [CBK267748], the viability at 28.5 h, 10 µM was determined as 83.8%.

On to `COc1ccc(S(=O)(=O)N2CCN(C(=O)c3cc(-c4ccncc4)nc4ccc(Br)cc34)CC2)cc1` [CBK267750], for which the viability at 28.5 h, 10 µM was 101%.

For the compound `Cc1ccc2nc(-c3ccncc3)cc(C(=O)N3CCN(c4ncccn4)CC3)c2c1` [CBK267751], the viability at 28.5 h, 10 µM is 93%.

In the case of `O=C(c1cc(-c2ccncc2)nc2ccc(Cl)cc12)N1CCN(C/C=C/c2ccccc2)CC1` [CBK267754], the viability at 28.5 h, 10 µM stood at 106%.

Consider `CC(CN1CCCCC1)NC(=O)c1cc(-c2ccncc2)nc2ccc(Br)cc12` (stereo not shown) [CBK267756], for which the viability at 28.5 h, 10 µM worked out at 90.6%.

As for `Cc1ccccc1-c1cc(C(=O)NCCCn2cc(Br)cn2)c2ccccc2n1` [CBK267758], the viability at 28.5 h, 10 µM was found to be 97.8%.

In the case of `CN(C)CCNC(=O)c1cc(-c2cccnc2)nc2c(Cl)cccc12` [CBK267761], the viability at 28.5 h, 10 µM was 112%.

Take `O=C(c1cc(-c2ccncc2)nc2ccc(Cl)cc12)N1CCN(Cc2ccc3c(c2)OCO3)CC1` [CBK267765]: the viability at 28.5 h, 10 µM amounted to 85.4%.

On to `COc1ccc(S(=O)(=O)N2CCN(C(=O)c3cc(-c4cccnc4)nc4c(C)cc(C)cc34)CC2)cc1OC` [CBK267767], for which the viability at 28.5 h, 10 µM worked out at 99.4%.

Turning to `Cc1cc(C)c2nc(-c3ccccn3)cc(C(=O)NCc3cccs3)c2c1` [CBK267772], the viability at 28.5 h, 10 µM amounted to 86.1%.

With `CC(=O)Nc1cccc(NC(=O)c2cc(-c3ccncc3)nc3ccc(Cl)cc23)c1` [CBK267773], the viability at 28.5 h, 10 µM was determined as 92.6%.

Consider `NS(=O)(=O)c1ccc(CNC(=O)c2cc(-c3cccc(Cl)c3)nc3ccccc23)cc1` [CBK267774], for which the viability at 28.5 h, 10 µM was 88.7%.

For the compound `CNS(=O)(=O)c1ccc(NC(=O)c2cc(-c3cccnc3)nc3ccc(Br)cc23)cc1` [CBK267776], the viability at 28.5 h, 10 µM amounted to 95.5%.

As to `COc1ccc(NC(=O)c2cc(-c3cccc(Cl)c3)nc3ccccc23)c([N+](=O)[O-])c1` [CBK267777], the viability at 28.5 h, 10 µM came to 86.7%.

Turning to `Cc1cc(C)c2nc(-c3ccccn3)cc(C(=O)Nc3ccc(S(=O)(=O)Nc4cc(C)on4)cc3)c2c1` [CBK267779], the viability at 28.5 h, 10 µM was 105%.

As to `Cc1c(-c2cccc(Cl)c2)nc2ccccc2c1C(=O)NCCc1ccc(S(N)(=O)=O)cc1` [CBK267784], the viability at 28.5 h, 10 µM came to 96%.

On to `O=C(Oc1cccc(-c2cnc3ccccc3n2)c1)c1ccc(S(=O)(=O)N2CCCCC2)cc1` [CBK267785], for which the viability at 28.5 h, 10 µM was found to be 104%.

With `O=C(O)c1[nH]c2ccccc2c1C(c1cccs1)c1c(C(=O)O)[nH]c2ccccc12` [CBK267786], the viability at 28.5 h, 10 µM stood at 118%.

Consider `N#CC1=C(N)Oc2[nH]nc(-c3ccccc3)c2C12C(=O)N(Cc1ccccc1)c1ccccc12` (stereo not shown) [CBK267787], for which the viability at 28.5 h, 10 µM amounted to 93.7%.

For the compound `O=C(O)c1[nH]c2ccccc2c1C(c1ccc(OC2CCCC2)cc1)c1c(C(=O)O)[nH]c2ccccc12` [CBK267789], the viability at 28.5 h, 10 µM was 85.9%.

Consider `CN(C)CCNCCCSc1ccc(Cl)cc1` [CBK267794C], for which the viability at 28.5 h, 10 µM was determined as 104%.

As for `O=C(c1c[nH]c2ccccc12)C(O)C(c1ccccc1)N1CCCCC1` (stereo not shown) [CBK267799], the viability at 28.5 h, 10 µM was 94.1%.

As for `CN(C)CCNCCOc1cccc([N+](=O)[O-])c1` [CBK267803C], the viability at 28.5 h, 10 µM came out at 99.7%.

Consider `COc1cc(C(c2c(C(=O)O)[nH]c3ccccc23)c2c(C(=O)O)[nH]c3ccccc23)cc(I)c1O` [CBK267804], for which the viability at 28.5 h, 10 µM worked out at 90.6%.

For the compound `Cc1ccc(OC(=O)c2ccc(S(=O)(=O)N(C)C)cc2)c(-n2nc3ccccc3n2)c1` [CBK267805], the viability at 28.5 h, 10 µM was determined as 81.2%.

Regarding `O=C(Nc1ccccc1)c1ccc(S(=O)(=O)N2CCC(C(=O)O)CC2)cc1` [CBK267806], the viability at 28.5 h, 10 µM is 89.7%.

For `CN(C)S(=O)(=O)c1ccc(C(=O)Nc2ccccc2O)cc1` [CBK267809], the viability at 28.5 h, 10 µM is 94.1%.

For `CC(NC(=O)c1ccccc1Br)c1nnc(SCc2ccc([N+](=O)[O-])cc2)n1C` (stereo not shown) [CBK267810], the viability at 28.5 h, 10 µM was found to be 103%.

Turning to `O=C(O)c1[nH]c2ccccc2c1C(c1ccsc1)c1c(C(=O)O)[nH]c2ccccc12` [CBK267811], the viability at 28.5 h, 10 µM is 103%.

Turning to `O=C(Oc1ccc(-c2cnc3ccccc3n2)cc1)c1ccc(S(=O)(=O)N2CCCCC2)cc1` [CBK267812], the viability at 28.5 h, 10 µM is 93.7%.

Turning to `O=C(O)c1[nH]c2ccccc2c1C(c1cc(Cl)cc([N+](=O)[O-])c1O)c1c(C(=O)O)[nH]c2ccccc12` [CBK267814], the viability at 28.5 h, 10 µM was 95.6%.

As to `CCN1CCCC1CNS(=O)(=O)c1cc(C(N)=O)ccc1OC` (stereo not shown) [CBK267815], the viability at 28.5 h, 10 µM amounted to 115%.

On to `Cc1ccc(C)c(OCCNCCN(C)C)c1Cl` [CBK267816C], for which the viability at 28.5 h, 10 µM stood at 88.5%.

`CN(Cc1ccccc1)C(=O)c1ccccc1NC(=O)c1ccccc1` [CBK267818]: the viability at 28.5 h, 10 µM was found to be 107%.

Turning to `Cc1ccc(SCCCn2cnc3ccccc32)cc1` [CBK267821G], the viability at 28.5 h, 10 µM came to 93.7%.

On to `CN1CCN(C(c2ccccc2)C(O)C(=O)c2c[nH]c3ccccc23)CC1` (stereo not shown) [CBK267823], for which the viability at 28.5 h, 10 µM amounted to 103%.

As to `CC1(C)[N+]([O-])=CC(c2ccc(-c3ccccc3)cc2)=[N+]([O-])C1(C)C` [CBK267825], the viability at 28.5 h, 10 µM is 98.7%.

As for `O=C(CSCc1ccccc1Cl)NNC(=O)c1cccnc1` [CBK267826], the viability at 28.5 h, 10 µM came out at 113%.

`COc1cccc(NC(=O)c2ccc(N(C)Cc3ccccc3)c([N+](=O)[O-])c2)c1` [CBK267827]: the viability at 28.5 h, 10 µM came out at 95.1%.

For the compound `O=C(CNC(=O)C1CCCCC1)NNC(=O)c1ccccc1Br` [CBK267828], the viability at 28.5 h, 10 µM was 102%.

With `O=C(Nc1ccc(/C=C/c2ccccc2)cc1)c1ccc(COc2ccccc2)o1` [CBK267829], the viability at 28.5 h, 10 µM turned out to be 91.3%.

Take `Cc1nnc(SCc2nc3ccccc3c(=O)[nH]2)[nH]1` [CBK267830]: the viability at 28.5 h, 10 µM is 90%.

Consider `Cn1cccc1CNCCc1ccc(S(N)(=O)=O)cc1` [CBK267831C], for which the viability at 28.5 h, 10 µM worked out at 98.7%.

Consider `COc1ccc(CC(=O)Nc2ccc(S(=O)(=O)NC(C)C)cc2)cc1` [CBK267833], for which the viability at 28.5 h, 10 µM was 93.2%.

`Cc1ccc(NS(=O)(=O)c2ccc(OCC(=O)N3CCN(C)CC3)c(C)c2)cc1` [CBK267834]: the viability at 28.5 h, 10 µM turned out to be 110%.

As for `COc1ccc(Cl)cc1NC(=O)CN(c1cccc(C(C)=O)c1)S(C)(=O)=O` [CBK267835], the viability at 28.5 h, 10 µM turned out to be 108%.

On to `Cc1ccccc1NC(=O)NCCCN1CCN(C)CC1` [CBK267837], for which the viability at 28.5 h, 10 µM is 85.2%.

Turning to `COc1cc(/C=C(/C#N)c2nc3ccccc3[nH]2)ccc1OCc1ccc(C(=O)O)o1` [CBK267839], the viability at 28.5 h, 10 µM is 90.7%.

On to `COc1ccc(C(=O)NC(=N)NCCc2c[nH]c3ccccc23)cc1` [CBK267840], for which the viability at 28.5 h, 10 µM was determined as 111%.
